US7345069B2, “Oxidative activation and episulfonium ion-mediated DNA alkylation-based anticancer” (Wisconsin Alumni Research Foundation, priority 2004, dated 2008)
Where two headings read alike, the source gives them in different places.

Legend:
LNCaP cells [1] = experiment: Growth inhibition by DNA assay, LNCaP cells in androgen-depleted medium, untreated or pretreated with R1881 (with or without vitamin E succinate); type: cell-based
Protocol: To test whether TG-25 was activated under oxidative stress, LNCaP cells were grown in androgen-depleted medium in the presence of 0.01 nM and 1 nM androgen analog R1881 for 96 h. […] This concentration was also close to the range of concentration of the active androgen dihydrotestosterone found in normal human male and patients treated with androgen ablation therapy. The growth inhibitory effect of LNM and TG-25 against LNCaP cells either untreated or pretreated with R1881 as shown in FIG. 9 and FIG. 10, respectively. Under these treatment conditions, 0.01 nM R1881 stimulated growth by about 30% and 1 nM R1881 inhibited cell growth to about 40% of the control untreated cells. The data shown in FIG. 9 and FIG. 10 are normalized for the growth stimulatory or inhibitory effects of R1881 alone.
The effect of LNM and TG-25 against LNCaP cells pretreated with both R1881 and α-tocopherol succinate are shown in FIG. 11 and FIG. 12, respectively. All data for pretreated cells were normalized for the growth inhibition induced by α-tocopherol succinate plus R1881.

LNCaP cells [2] = conditions: cited from earlier work; for cellular ROS level: 96 h
[3] = system: immortalized normal prostatic epithelial cells (E6); experiment: Growth inhibition by DNA assay, immortalized normal prostatic epithelial cells (E6); type: cell-based
DU-145 cells = experiment: Growth inhibition by DNA fluorescence assay, cells grown in 5% FBS, 72 h after drug treatment; type: cell-based; conditions: DNA fluorescence 72 h after drug treatment
Protocol: The growth inhibitory effects of LNM against LNCaP and DU-145 cell lines grown in 5% FBS were determined by measuring DNA fluorescence 72 h after drug treatment. […] Growth inhibitory effects of LNM against LNCaP and DU-145 cells were expressed as percent of control untreated cells are shown in FIG. 7.

[4] = In vitro oxidation of purified TG-25 on exposure to O2; type: physicochemical; conditions: aqueous or methanol solution
Description: Three additional minor metabolites were also characterized from the ΔlnmE strain, and their structures were elucidated by the combination of MS, ^1H- and ^13C—NMR, and various 2D NMR spectroscopic methods as discussed above (compound 1, 2, 4, and 5 as shown in FIG. 6) Although these compounds were isolated in minor quantities and were apparently derived from TG-25 during the isolation, their structures were critical in helping to define the oxidative activation of TG-25 undergo rearrangement via an episulfornium ion intermediate (FIG. 6). It was clear by comparing the structure of TG-25 with those of 1 and 2 that an oxidation step was required for their conversion. Isolation of compound 4 shed light into how this oxidative rearrangement from TG-25 to 1 or 2 actually happens. Thus, as depicted in FIG. 6 TG-25 apparently was first oxidized by O2 to form the dimmer 4, activating the sulfhydryl group into a disulfide. Nucleophilic attack of the disulfide by the double bond could then be envisaged to form an episulfonium ion intermediate, in a mechanistic analogy to LNM, that subsequently could be trapped by H2O (leading the formation of 1) or methanol (leading to the formation of 2). This hypothesis was confirmed by re-producing the chemistry in vitro with purified TG-25.

## C[C@]1(O)CC[C@H]2[C@@H]3CCC4=CC(=O)CCC4=C3C=C[C@@]21C [Compound R1881]
LNCaP cells [1]; 0.01 nM R1881, 96 h, androgen-depleted medium
  growth stimulation by R1881 alone: about 30%
LNCaP cells [1]; 1 nM R1881, 96 h, androgen-depleted medium
  cell growth with R1881 alone: about 40 % of the control untreated cells
LNCaP cells [2]; 0.01 nM R1881, LNCaP cells
  cellular ROS level: reduces the cellular ROS
LNCaP cells [2]; 1 nM R1881, LNCaP cells
  cellular ROS level: increases cellular ROS level

## C/C1=C\[C@@H](O)C(=O)/C=C/C=C\c2csc(n2)[C@@H](C)NC(=O)C[C@@]2(CC1)[S+]([O-])SC(=O)[C@]2(C)O (stereo partly drawn) [LNM, leinamycin]
[3]; Epithelial cell, read-out: IC50, growth inhibition
  IC50: < 0.2 nM
[3]; immortalized normal prostatic epithelial cells vs LNCaP and DU-145
  growth inhibitory effect compared with the prostate cancer cell lines: stronger growth inhibitory effect
LNCaP cells [1]; LNCaP cells
  growth inhibitory effect in androgen depleted medium compared with 5% FBS: more pronounced
LNCaP cells [1]; LNCaP cells pretreated with 0.01 nM or 1 nM R1881
  influence of R1881 pretreatment on growth inhibition: not appreciably affected
LNCaP cells [1]; LNM alone or in combination with R1881, LNCaP cells
  influence of α-tocopherol succinate on growth inhibition: no effect
DU-145 cells
  sensitivity of DU-145 cells compared with LNCaP cells: slightly more sensitive to LNM

## C/C1=C\CC(=O)/C=C/C=C\c2csc(n2)[C@@H](C)NC(=O)C[C@@](S)(C(C)C(=O)O)CC1 (stereo partly drawn) [TG-25]
[3]; immortalized normal prostatic epithelial cells, up to μM concentration
  growth inhibitory effect: little growth inhibitory effect even at μM concentration
[4]
  conversion upon exposure to O2: rapidly converted to 1 or 2
LNCaP cells [1]; Homo sapiens, LNCaP cells pretreated with 1 nM androgen analog R1881, read-out: IC50, growth inhibition of LNCaP prostate cancer cells
  IC50: 5 to 10 µM
LNCaP cells [1]; LNCaP cells pretreated with 1 nM R1881 plus α-tocopherol succinate, normalized for pretreatment alone
  growth inhibitory effect after co-pretreatment with R1881 and vitamin E (α-tocopherol succinate): completely reverses the growth inhibitory effect
LNCaP cells [1]; LNCaP cells, 0.01 nM R1881 for 96 h
  growth inhibitory effect against cells pretreated with 0.01 nM R1881: no effect
LNCaP cells [1]; LNCaP cells, R1881 pretreated (high oxidative stress)
  growth inhibitory effect against R1881 pretreated cells: markedly inhibited the growth
LNCaP cells [1]; LNCaP cells, androgen-depleted medium, no R1881
  growth inhibitory effect against control untreated cells: no effect

## Cc1c(C)c2c(c(C)c1OC(=O)CCC(=O)O)CCC(C)(CCCC(C)CCCC(C)CCCC(C)C)O2 (stereo not drawn) [α-tocopherol (vitamin E) succinate]
LNCaP cells [2]; co-treatment of LNCaP cells
  effect on the increase in ROS level by 1 nM R1881 pretreatment: can be inhibited
